Consider 13 molecules from patent publication US12590066B2, “Fused-heterocyclyl-carbonohydrazonoyl dicyanide compounds and use thereof” (KOREA INSTITUTE OF SCIENCE AND TECHNOLOGY, priority 2020, dated 2026).

What all share (assay): Inhibitory effect on CYP coenzyme activity, human liver microsomes
What all share (format): in vitro ADME

One data set deals with T1, CYP2C9 (Homo sapiens, UniProt P11712).
T1 construct: human liver microsomes (0.25 mg/mL); from tissue; host or cells: human liver microsomes
T1 sequence (P11712 whole entry): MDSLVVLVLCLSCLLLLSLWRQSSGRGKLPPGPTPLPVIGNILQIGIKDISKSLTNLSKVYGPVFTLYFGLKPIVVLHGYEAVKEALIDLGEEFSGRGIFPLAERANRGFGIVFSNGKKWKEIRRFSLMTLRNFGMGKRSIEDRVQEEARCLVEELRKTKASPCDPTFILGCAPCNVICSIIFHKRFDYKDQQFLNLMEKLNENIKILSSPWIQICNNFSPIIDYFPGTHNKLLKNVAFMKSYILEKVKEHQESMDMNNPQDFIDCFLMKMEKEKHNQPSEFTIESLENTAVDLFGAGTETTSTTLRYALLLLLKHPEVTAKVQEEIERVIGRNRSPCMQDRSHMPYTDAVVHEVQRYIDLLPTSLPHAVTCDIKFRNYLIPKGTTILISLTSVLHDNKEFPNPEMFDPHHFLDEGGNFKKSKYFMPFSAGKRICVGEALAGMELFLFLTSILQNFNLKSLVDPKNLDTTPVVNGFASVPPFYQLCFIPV
Particulars: 10 μM compound, human liver microsomes 0.25 mg/mL, substrate diclofenac, 15 minutes. The method, then:
(§1) The inhibitory effects of the compounds prepared according to Examples 1 to 57 on CYP coenzyme activity were identified. Specifically, human liver microsomes (0.25 mg/mL), a 0.1 M phosphate buffer solution (pH 7.4), a substrate drug cocktail of five types of drug metabolism enzymes (50 μM phenacetin, 10 μM diclofenac, 100 μM S-mephenytoin, 5 μM dextromethorphan, and 2.5 μM midazolam), and the compound at a concentration of 0 μM or 10 μM were mixed and pre-cultured at 37° C. for 5 minutes, and then further cultured at 37° C. for 15 minutes together with an NADPH generation system solution added thereto. Thereafter, the reaction was terminated by adding an acetonitrile solution containing an internal standard material (terfenadine) and centrifuged for 5 minutes (14,000 rpm, 4° C.), and then a supernatant was injected into an LC-MS/MS system for simultaneous analysis of metabolites of the substrate drugs to thereby evaluate the inhibitory effects on drug metabolism.
(§2) Metabolites of each CYP coenzyme indicator drug generated through the reaction were analyzed using the Shimadzu Nexera XR system and TSQ Vantage (Thermo). In an HPLC column, Kinetex C18 (2.1 mm×100 mm, 2.6 μm, particle size; Phenomenex, USA) was used, and mobile phases were (A) distilled water containing 0.1% formic acid and (B) acetonitrile containing 0.1% formic acid, and a gradient program shown in Table 3 was applied thereto.
(§3) The generated metabolites were quantified using a multiple reaction monitoring (MRM) quantification mode, and Xcalibur (version 1.6.1) was used for data analysis. In order to express inhibitory effects of the novel compound prepared according to the examples of the present invention on CYP coenzyme activity, CYP coenzyme activities (%) with respect to the control group not treated with the compound are shown in Table 4 below.

For a further data set, the target named is T2, CYP2D6 (Homo sapiens, UniProt P10635).
T2 construct: human liver microsomes (0.25 mg/mL); from tissue; host or cells: human liver microsomes
T2 sequence (P10635 whole entry): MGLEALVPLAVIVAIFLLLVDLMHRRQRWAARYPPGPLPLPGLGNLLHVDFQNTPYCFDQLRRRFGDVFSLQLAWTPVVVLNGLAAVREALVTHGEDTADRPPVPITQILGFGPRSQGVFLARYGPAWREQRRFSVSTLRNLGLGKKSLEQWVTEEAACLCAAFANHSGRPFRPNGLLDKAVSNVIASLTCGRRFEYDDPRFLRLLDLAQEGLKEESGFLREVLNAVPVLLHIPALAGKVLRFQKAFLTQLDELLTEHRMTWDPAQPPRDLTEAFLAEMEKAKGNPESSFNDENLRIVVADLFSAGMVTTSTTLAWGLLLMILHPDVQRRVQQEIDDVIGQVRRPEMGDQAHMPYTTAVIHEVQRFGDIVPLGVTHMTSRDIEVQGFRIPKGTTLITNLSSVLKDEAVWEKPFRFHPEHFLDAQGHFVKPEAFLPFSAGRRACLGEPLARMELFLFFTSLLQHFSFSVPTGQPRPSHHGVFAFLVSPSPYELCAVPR
Particulars: 10 μM compound, human liver microsomes 0.25 mg/mL, substrate dextromethorphan, 15 minutes. The method, then: as §1, §2, §3

The target of another data set is T3, CYP1A2 (Homo sapiens, UniProt P05177).
T3 construct: human liver microsomes (0.25 mg/mL); from tissue; host or cells: human liver microsomes
T3 sequence (P05177 1-516): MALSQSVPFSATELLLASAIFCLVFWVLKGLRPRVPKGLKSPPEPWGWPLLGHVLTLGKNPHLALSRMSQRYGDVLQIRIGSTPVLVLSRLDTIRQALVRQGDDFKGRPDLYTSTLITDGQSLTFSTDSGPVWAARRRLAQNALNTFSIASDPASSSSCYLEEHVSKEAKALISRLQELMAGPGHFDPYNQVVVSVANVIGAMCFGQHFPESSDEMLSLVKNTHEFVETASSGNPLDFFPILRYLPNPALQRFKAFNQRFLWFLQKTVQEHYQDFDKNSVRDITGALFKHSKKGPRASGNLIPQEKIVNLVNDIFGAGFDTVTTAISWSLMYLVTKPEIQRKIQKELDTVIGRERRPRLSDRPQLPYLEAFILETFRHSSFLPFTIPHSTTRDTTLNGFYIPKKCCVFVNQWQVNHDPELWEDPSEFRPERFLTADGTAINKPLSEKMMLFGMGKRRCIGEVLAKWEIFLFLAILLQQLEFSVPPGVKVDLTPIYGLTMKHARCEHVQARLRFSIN
The settings on record: 10 μM compound, human liver microsomes 0.25 mg/mL, substrate phenacetin, 15 minutes. The procedure: as §1, §2, §3

The target in a further data set is T4, CYP3A4 (Homo sapiens, UniProt P08684).
T4 construct: human liver microsomes (0.25 mg/mL); from tissue; host or cells: human liver microsomes
T4 sequence (P08684 whole entry): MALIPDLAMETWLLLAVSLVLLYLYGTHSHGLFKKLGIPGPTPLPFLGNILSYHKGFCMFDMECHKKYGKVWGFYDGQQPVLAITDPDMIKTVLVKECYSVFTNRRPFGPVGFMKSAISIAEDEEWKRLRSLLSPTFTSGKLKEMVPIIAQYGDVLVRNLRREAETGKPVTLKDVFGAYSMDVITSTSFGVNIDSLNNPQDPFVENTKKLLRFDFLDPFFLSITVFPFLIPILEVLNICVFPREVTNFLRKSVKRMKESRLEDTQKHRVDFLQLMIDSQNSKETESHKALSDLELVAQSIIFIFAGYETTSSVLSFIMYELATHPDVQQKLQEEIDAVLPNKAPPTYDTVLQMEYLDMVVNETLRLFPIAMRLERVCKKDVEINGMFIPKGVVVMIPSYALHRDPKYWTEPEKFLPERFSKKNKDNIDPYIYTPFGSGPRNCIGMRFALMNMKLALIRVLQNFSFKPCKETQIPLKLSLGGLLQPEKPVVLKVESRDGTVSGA
Particulars: 10 μM compound, human liver microsomes 0.25 mg/mL, substrate midazolam, 15 minutes. The method, then:
as §1, §2, §3
(Liver microsomes are vesicles of endoplasmic reticulum, rich in cytochrome P450 enzymes.)

For a further data set, the target named is T5, CYP2C19 (Homo sapiens, UniProt P33261).
T5 construct: human liver microsomes (0.25 mg/mL); from tissue; host or cells: human liver microsomes
T5 sequence (P33261 whole entry): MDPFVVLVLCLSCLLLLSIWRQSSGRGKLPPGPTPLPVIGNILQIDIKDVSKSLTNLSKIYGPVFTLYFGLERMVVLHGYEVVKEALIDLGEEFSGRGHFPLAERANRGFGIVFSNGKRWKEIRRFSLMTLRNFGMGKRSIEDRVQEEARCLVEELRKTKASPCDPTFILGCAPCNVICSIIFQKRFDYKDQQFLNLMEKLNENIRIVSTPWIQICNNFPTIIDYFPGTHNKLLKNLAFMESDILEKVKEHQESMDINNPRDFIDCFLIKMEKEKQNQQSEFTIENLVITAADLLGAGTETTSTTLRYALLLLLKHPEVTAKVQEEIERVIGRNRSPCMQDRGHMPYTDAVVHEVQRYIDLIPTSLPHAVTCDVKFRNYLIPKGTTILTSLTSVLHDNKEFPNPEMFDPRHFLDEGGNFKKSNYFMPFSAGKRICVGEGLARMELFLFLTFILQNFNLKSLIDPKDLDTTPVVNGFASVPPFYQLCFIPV
Particulars: 10 μM compound, human liver microsomes 0.25 mg/mL, substrate S-mephenytoin, 15 minutes. The method, then:
as §1, §2, §3

`Cn1ccc2c(NN=C(C#N)C#N)cccc2c1=O` [Compound 5, (2-methyl-1-oxo-1,2-dihydroisoquinolin-5-yl)carbonohydrazonoyl dicyanide]: the “CYP2C9 coenzyme activity (%) with respect to control group not treated” value at CYP2C9 was determined as 29.1%. Also, the “CYP2D6 coenzyme activity (%) with respect to control group not treated” value at CYP2D6 is recorded as 93.1%. The “CYP1A2 coenzyme activity (%) with respect to control group not treated” value at CYP1A2 stood at 70.7%. Besides, the “CYP3A4 coenzyme activity (%) with respect to control group not treated” value on CYP3A4 is 88.6%. In addition, the “CYP2C19 coenzyme activity (%) with respect to control group not treated” value at CYP2C19 is reported as above 100%.

As to `CC(C)n1c(=O)n(C2CC2)c2ncc(NN=C(C#N)C#N)cc21` [Compound 53, (3-cyclopropyl-1-isopropyl-2-oxo-2,3-dihydro-1H-imidazo[4,5-b]pyridin-6-yl)carbonohydrazonoyl dicyanide], the “CYP2C9 coenzyme activity (%) with respect to control group not treated” value at CYP2C9 is given as 75.3%. At CYP2D6, the “CYP2D6 coenzyme activity (%) with respect to control group not treated” value is above 100%. In addition, the “CYP1A2 coenzyme activity (%) with respect to control group not treated” value at CYP1A2 is reported as above 100%. Also, the “CYP3A4 coenzyme activity (%) with respect to control group not treated” value on CYP3A4 was found to be 97.8%. Besides, the “CYP2C19 coenzyme activity (%) with respect to control group not treated” value at CYP2C19 is on record as above 100%.

Turning to `CC(C)n1c(=O)n(C(C)C)c2cc(NN=C(C#N)C#N)ccc21` [Compound 23, (1,3-diisopropyl-2-oxo-2,3-dihydro-1H-benzo[d]imidazol-5-yl)carbonohydrazonoyl dicyanide], the “CYP2C9 coenzyme activity (%) with respect to control group not treated” value on CYP2C9 is given as 46.4%. Also, on CYP2D6, the “CYP2D6 coenzyme activity (%) with respect to control group not treated” value is given as 95.3%. Further, at CYP1A2, the “CYP1A2 coenzyme activity (%) with respect to control group not treated” value is on record as 83.2%. In addition, the “CYP3A4 coenzyme activity (%) with respect to control group not treated” value on CYP3A4 worked out at 79.6%. Besides, the “CYP2C19 coenzyme activity (%) with respect to control group not treated” value on CYP2C19 is reported as 69.7%.

Consider `N#CC(C#N)=NNc1ccc2c(c1)sc(=O)n2C(F)F` [Compound 19, (3-(difluoromethyl)-2-oxo-2,3-dihydrobenzo[d]thiazol-6-yl)carbonohydrazonoyl dicyanide], for which the “CYP2C9 coenzyme activity (%) with respect to control group not treated” value at CYP2C9 was 23.3%. Moreover, the “CYP2D6 coenzyme activity (%) with respect to control group not treated” value at CYP2D6 amounted to 40.5%. In addition, on CYP1A2, the “CYP1A2 coenzyme activity (%) with respect to control group not treated” value is given as 52.5%. Also, on CYP3A4, the “CYP3A4 coenzyme activity (%) with respect to control group not treated” value is 81.8%. For the same molecule, the “CYP2C19 coenzyme activity (%) with respect to control group not treated” value on CYP2C19 is listed as 75.7%.

As for `N#CC(C#N)=NNc1ccc2c(c1)n(C(F)F)c(=O)n2C(F)F` [Compound 24, (1,3-bis(difluoromethyl)-2-oxo-2,3-dihydro-1H-benzo[d]imidazol-5-yl)carbonohydrazonoyl dicyanide], on CYP2C9, the “CYP2C9 coenzyme activity (%) with respect to control group not treated” value was determined as 40.6%. In addition, the “CYP2D6 coenzyme activity (%) with respect to control group not treated” value at CYP2D6 is reported as 82.5%. Besides, at CYP1A2, the “CYP1A2 coenzyme activity (%) with respect to control group not treated” value is 32.8%. In addition, the “CYP3A4 coenzyme activity (%) with respect to control group not treated” value at CYP3A4 worked out at 78.1%. In addition, the “CYP2C19 coenzyme activity (%) with respect to control group not treated” value at CYP2C19 came to 73.9%.

For `Cn1c(=O)n(C)c2cc(NN=C(C#N)C#N)c(Cl)cc21` [Compound 10, (6-chloro-1,3-dimethyl-2-oxo-2,3-dihydro-1H-benzo[d]imidazol-5-yl)carbonohydrazonoyl dicyanide], the “CYP2C9 coenzyme activity (%) with respect to control group not treated” value at CYP2C9 is above 100%. The “CYP2D6 coenzyme activity (%) with respect to control group not treated” value at CYP2D6 is listed as above 100%. In addition, at CYP1A2, the “CYP1A2 coenzyme activity (%) with respect to control group not treated” value is 94.2%. Further, the “CYP3A4 coenzyme activity (%) with respect to control group not treated” value at CYP3A4 is listed as above 100%. Also, at CYP2C19, the “CYP2C19 coenzyme activity (%) with respect to control group not treated” value came out at 94.6%.

On to `CC(C)n1ccc2ccc(NN=C(C#N)C#N)cc2c1=O` [Compound 3, (2-isopropyl-1-oxo-1,2-dihydroisoquinolin-7-yl)carbonohydrazonoyl dicyanide], for which the “CYP2C9 coenzyme activity (%) with respect to control group not treated” value on CYP2C9 stood at 78.5%. At CYP2D6, the “CYP2D6 coenzyme activity (%) with respect to control group not treated” value is given as above 100%. Further, the “CYP1A2 coenzyme activity (%) with respect to control group not treated” value on CYP1A2 is 50.2%. In addition, at CYP3A4, the “CYP3A4 coenzyme activity (%) with respect to control group not treated” value is above 100%. Also, at CYP2C19, the “CYP2C19 coenzyme activity (%) with respect to control group not treated” value is listed as 98.2%.

In the case of `CCn1c(=O)n(C)c2cc(NN=C(C#N)C#N)ccc21` [Compound 38, (1-ethyl-3-methyl-2-oxo-2,3-dihydro-1H-benzo[d]imidazol-5-yl)carbonohydrazonoyl dicyanide], on CYP2C9, the “CYP2C9 coenzyme activity (%) with respect to control group not treated” value was determined as 92.6%. For the same molecule, the “CYP2D6 coenzyme activity (%) with respect to control group not treated” value on CYP2D6 was above 100%. For the same molecule, the “CYP1A2 coenzyme activity (%) with respect to control group not treated” value on CYP1A2 came out at 98.9%. For the same molecule, on CYP3A4, the “CYP3A4 coenzyme activity (%) with respect to control group not treated” value is above 100%. Besides, the “CYP2C19 coenzyme activity (%) with respect to control group not treated” value at CYP2C19 is recorded as above 100%.

With `Cn1c(=O)n(C)c2cc(NN=C(C#N)C#N)ccc21` [Compound 22, (1,3-dimethyl-2-oxo-2,3-dihydro-1H-benzo[d]imidazol-5-yl)carbonohydrazonoyl dicyanide], the “CYP2C9 coenzyme activity (%) with respect to control group not treated” value at CYP2C9 amounted to 99%. Besides, on CYP2D6, the “CYP2D6 coenzyme activity (%) with respect to control group not treated” value was above 100%. Further, the “CYP1A2 coenzyme activity (%) with respect to control group not treated” value at CYP1A2 is reported as 93.5%. Besides, on CYP3A4, the “CYP3A4 coenzyme activity (%) with respect to control group not treated” value is given as above 100%. For the same molecule, the “CYP2C19 coenzyme activity (%) with respect to control group not treated” value on CYP2C19 is reported as above 100%.

With `CC(C)n1c(=O)n(C(F)F)c2cc(NN=C(C#N)C#N)ccc21` [Compound 43, (3-(difluoromethyl)-1-isopropyl-2-oxo-2,3-dihydro-1H-benzo[d]imidazol-5-yl)carbonohydrazonoyl dicyanide], on CYP2C9, the “CYP2C9 coenzyme activity (%) with respect to control group not treated” value came out at 14.1%. Further, the “CYP2D6 coenzyme activity (%) with respect to control group not treated” value at CYP2D6 is on record as 82.2%. The “CYP1A2 coenzyme activity (%) with respect to control group not treated” value at CYP1A2 turned out to be 61.7%. Further, the “CYP3A4 coenzyme activity (%) with respect to control group not treated” value at CYP3A4 is given as 72.6%. The “CYP2C19 coenzyme activity (%) with respect to control group not treated” value on CYP2C19 came out at 60.2%.

As for `Cn1c(=O)n(C)c2c(Cl)cc(NN=C(C#N)C#N)cc21` [Compound 11, (7-chloro-1,3-dimethyl-2-oxo-2,3-dihydro-1H-benzo[d]imidazol-5-yl)carbonohydrazonoyl dicyanide], the “CYP2C9 coenzyme activity (%) with respect to control group not treated” value on CYP2C9 was determined as 45.8%. Besides, the “CYP2D6 coenzyme activity (%) with respect to control group not treated” value on CYP2D6 is recorded as above 100%. The “CYP1A2 coenzyme activity (%) with respect to control group not treated” value on CYP1A2 worked out at 73.7%. Further, the “CYP3A4 coenzyme activity (%) with respect to control group not treated” value at CYP3A4 is listed as above 100%. In addition, the “CYP2C19 coenzyme activity (%) with respect to control group not treated” value at CYP2C19 was 88.4%.

Consider `Cn1c(=O)oc2cc(NN=C(C#N)C#N)ccc21` [Compound 16, (3-methyl-2-oxo-2,3-dihydrobenzo[d]oxazol-6-yl)carbonohydrazonoyl dicyanide], for which the “CYP2C9 coenzyme activity (%) with respect to control group not treated” value on CYP2C9 came to 54.9%. At CYP2D6, the “CYP2D6 coenzyme activity (%) with respect to control group not treated” value is above 100%. At CYP1A2, the “CYP1A2 coenzyme activity (%) with respect to control group not treated” value was 91.5%. Further, at CYP3A4, the “CYP3A4 coenzyme activity (%) with respect to control group not treated” value was determined as 99.8%. Further, on CYP2C19, the “CYP2C19 coenzyme activity (%) with respect to control group not treated” value amounted to 90.8%.

With `Cn1c(=O)n(C(F)F)c2cc(NN=C(C#N)C#N)ccc21` [Compound 37, (3-(difluoromethyl)-1-methyl-2-oxo-2,3-dihydro-1H-benzo[d]imidazol-5-yl)carbonohydrazonoyl dicyanide], the “CYP2C9 coenzyme activity (%) with respect to control group not treated” value at CYP2C9 was determined as 29.2%. Besides, the “CYP2D6 coenzyme activity (%) with respect to control group not treated” value at CYP2D6 is given as above 100%. Besides, the “CYP1A2 coenzyme activity (%) with respect to control group not treated” value at CYP1A2 turned out to be 64.6%. The “CYP3A4 coenzyme activity (%) with respect to control group not treated” value at CYP3A4 is reported as 96.7%. Besides, on CYP2C19, the “CYP2C19 coenzyme activity (%) with respect to control group not treated” value came to 90.7%.
